Test results as given in paper PMC12392461, “Beyond Estrogenicity: A Comparative Assessment of Bisphenol A and Its Alternatives in In Vitro Assays Questions Safety of Replacements” (Environmental Science & Technology, 2025).
Where two headings read alike, the source gives them in different places.

Key:
SH-SY5Y cells = conditions: for IC10, linear transformed / IC10, linear / logIC10: NOI bioassay cytotoxicity, dosing range all; for IC10, linear: linear model; for logIC10: log-logistic model; for Toxic ratio (TR) TRNOI: against baseline cytotoxicity; for IC10, SH-S5Y5, NOI: cytotoxicity, NOI assay cells
Protocol: (§1) Cell culture conditions and bioassay protocols including response detection are provided in Text S2.1–2.4 and Table S3. − Cell viability was determined from cell confluency using an IncuCyte S3 Live-Cell Analysis System (Sartorius AG, Essen, Germany) before and after exposure, except for SH-SY5Y cells (live–dead staining with Nuclear Green LcS1 and propidium iodide, Abcam, UK). For metabolic activation experiments, cell viability was assessed using the ToxBLAzer DualScreen Kit (Thermo Fisher Scientific) to capture the remaining toxicity in ERα-UAS-bla GripTite after treatment with the aCYP catalyst (details in Text S2.4). […]
We measured the cytotoxicity of BPA and its alternatives in HEK293H (PPARγ), HEK293T (ERα), H4IIe (AhR CALUX), MCF7 (ARE/MMP), and differentiated SH-SY5Y cells (Table S6). […]
medium, supplemented with 2% B-27 Supplement and 2 mM GlutaMAX Supplement. SH - SY5Y cells were differentiated with 10 µM all-trans retinoic acid prior to the assay.
S2.2: Cell Seeding and Incubation. For all bioassays, cell suspensions in the respective assay medium were dispensed into each well of 384-well plates using a MultiFlo Dispenser (Biotek, (now Agilent), Winooski, VT, U.S.). After seeding, the plates were incubated at 37° C and 5% […]
NYC, U.S.) for AhR: 3250 cells/well. Black Collagen I coated plates were used (Product No.
S2.3: Chemical Dosing and Assay Analysis Procedures. The dosing procedure and high-throughput assay workflow have been described in detail before. 9 The dosing concentrations […]
Stock solutions were then either added directly to the respective cell culture medium or evaporated under nitrogen, followed by replenishment with fresh medium. The final solvent content in each well was kept below 1% for methanol, 0% for acetonitrile.
Dosing plates were prepared as 11 -step serial dilutions using a Hamilton Microlab Star robotic system (Hamilton, Bonaduz, Switzerland), and chemicals were dosed in duplicates by transferring 10 μL twice from the dosing plates to the cell plates . After quantifying cell confluency as described in S2. 4., the exposed cells were incubated at 37° C and 5% CO₂ for an additional 24 h. All chemicals were tested in all assays with at least three independent […]
S2.4: Cell Viability Measurement s and bioanalytical protocols . The confluency as a measure of cell viability was determined with an IncuCyte S3 Live -Cell Analysis System (Sartorius AG, Essen, Germany). With this method the confluency of cells in a microscopy image are normalized to control wells without cells and compared before and after 24 hours of exposure.
This method has been described previously 13. Cell viability of SH-SY5Y cells was measured […]
propidium iodide (PI, Abcam, Cambridge, U.K.).14 Nuclear Green LCS1 is a membrane-permeable dye that stains the nuclei of all cells, whereas PI only enters cells with compromised membrane integrity (non-viable cells). After staining, live cells show green nuclei without red fluorescence, while dead cells display both green and red nuclear fluorescence due to PI […]
intercalation. […]

[1] = system: ERα-UAS-bla GripTite cells; conditions: for TKcytotoxicity: TKcytotoxicity-Ratio; for TKcytotoxicity (TK-Ratio for cytotoxicity): IC10 before/after aCYP oxidation
Protocol: as §1
The TK-Ratio method was used to evaluate the impact of abiotic CYP oxidation on the potency of tested compounds. […]
For experiments with the preceding aCYP activation, ERα cell viability was additionally calculated from the readout of the ToxBLAzer reagent. The ToxBLAzer assay was conducted following the manufacturer's instructions (Thermo Fisher, Waltham, MA, U.S.).13 Fluorescence intensity was recorded at the start of the assay ( Fwavelength(0h)) and after a 2-hour incubation at […]
eq. S11 for normalization.
Cell viability = F665nm(2h, sample)-F665nm(0h, average cell-free) (S11) F665nm(2h, average unexposed)-F665nm(0h, average cell-free) […]
the specific endpoint to avoid artifacts from cytotoxicity burst. 15
S2.5: Concentration-response curves (CRCs)
To avoid bias from cytotoxicity burst at higher concentrations, all concentrations exceeding the IC10 for cytotoxicity were excluded in the CRC modeling of effects but otherwise cytotoxicity and effects were fitted with the same model equations (response stands for cytotoxicity or effect). For ERα, AhR, ARE and PPARγ preferably a linear model was fitted to the linear portion of CRC up to maximum 30% effect (eq. S12),16 but in some cases it was necessary to choose a sigmoidal log-concentration-response model, specifically a log-logistic model (eq. S13), to derive effect concentrations and cytotoxicity. […]
This was done using the
AutomatedBioassayScreening19 published by Braun et al.,20 which also included an algorithm to choose the best model between eq. S12 and eq. S13.
Response (%) = slope × C (S12) […]
logEC =logEC − 1 ∙log (max−min − 100%) (S14)

[2] = Abiotic CYP (aCYP) oxidation, remaining parent compound (Cparent-Ratio); conditions: for Cparent-Ratio Rep.1 %: Table S9, replicate 1; for Cparent-Ratio Rep.2 %: Table S9, replicate 2; for reduction of C parent after aCYP oxidation: 15 min, 30 °C
[3] = Table S9, loss of parent after aCYP oxidation
[4] = Table S9, mean of two replicate experiments
[5] = Table S9, replicate 1, as fraction
[6] = Table S9, replicate 2, as fraction
[7] = Table S11, measured simultaneously with bioassay

Row | SMILES | IC10, linear transformed (SH-SY5Y cells) | IC10, linear (SH-SY5Y cells) | logIC10 (SH-SY5Y cells) | Toxic ratio (TR) TRNOI (SH-SY5Y cells) | IC10, SH-S5Y5, NOI (SH-SY5Y cells) | TKcytotoxicity ([1]; Table S10) | TKcytotoxicity ([1]; Table S11) | % Loss [2, 3] | Cparent-Ratio Mean [2, 4] | Cparent-Ratio Rep.1 % [2] | Cparent-Ratio Rep.1 [2, 5] | Cparent-Ratio Rep.2 % [2] | Cparent-Ratio Rep.2 [2, 6] | % Loss ([2]; Table S11) | Cparent-Ratio Mean [2, 7] | Cparent-Ratio Rep.1 [2, 7] | Cparent-Ratio Rep.2 [2, 7] | TKcytotoxicity (TK-Ratio for cytotoxicity) [1] | reduction of C parent after aCYP oxidation [2] | IC10, before oxidation ([1]; Table S10, cytotoxicity from ToxBLazer data, without simultaneous cparent measurement)
1 | CC(C)c1cc(C(C)(C)c2ccc(O)c(C(C)C)c2)ccc1O [BPG, 2,2-Bis(4-hydroxy-3-isopropylphenyl)propane] | 3.61E-05 | no cytotoxicity | -4.44 | 0.08 | 36.1 µM | 0.62 | 0.67 | 15% | 0.85 | 67.85% | 0.68 | 102.05% | 1.02 | 34% | 0.66 | 0.79 | 0.53 | – | – | –
2 | CC(C)(c1ccc(O)cc1)c1ccc(O)cc1 [BPA, 4,4'-(Propane-2,2-diyl)diphenol, reference compound] | 2.37E-04 | no cytotoxicity | -3.62 | 0.0846 | 237 µM | 1.13 | 0.63 | 15% | 0.85 | 86.04% | 0.86 | 84.76% | 0.85 | 11% | 0.89 | 0.90 | 0.88 | ≤ 2 | 15% | –
3 | Cc1ccc(S(=O)(=O)NC(=O)Nc2cccc(OS(=O)(=O)c3ccc(C)cc3)c2)cc1 [Pergafast, N-(p-toluenesulfonyl)-N'-(3-(p-toluenesulfonyloxy)phenyl)urea] | – | 4.94E-05 | no cytotoxicity | 2.23 | 49.4 µM | 0.45 | – | 44% | 0.56 | 66.98% | 0.67 | 45.82% | 0.46 | 32% | 0.68 | 0.75 | 0.61 | – | 44% | –
4 | CC(C)(c1cc(Br)c(O)c(Br)c1)c1cc(Br)c(O)c(Br)c1 [TBBPA, 3,3',5,5'-Tetrabromobisphenol A] | – | no cytotoxicity | no cytotoxicity | – | – | 0.52 | – | 8% | – | – | – | – | – | – | – | – | – | – | – | –
5 | C=CCOc1ccc(S(=O)(=O)c2ccc(O)cc2)cc1 [BPS-MAE, 4-[[4-(Allyloxy)phenyl]sulfonyl]phenol] | 1.36E-04 | no cytotoxicity | -3.87 | – | 136 µM | 2.91 | – | 1.47% | – | – | – | – | – | – | – | – | – | – | – | –
6 | O=S(=O)(c1ccc(O)cc1)c1ccc(OCc2ccccc2)cc1 [BPS-MPE, 4-[4-(benzyloxy)benzenesulfonyl]phenol] | – | no cytotoxicity | no cytotoxicity | – | – | 0.45 | – | 0.295% | 1.00 | 118.51% | 1.19 | 80.90% | 0.81 | – | – | – | – | – | – | –
7 | COC(=O)C(c1ccc(O)cc1)c1ccc(O)cc1 [Bz, Methyl bis(4-hydroxyphenyl)acetate] | 5.07E-04 | 3.73E-04 | -3.30 | 0.85 | 373 µM | 2.48 | – | -7% | 1.07 | 113.92% | 1.14 | 100.34% | 1.00 | – | – | – | – | 2.48 ± 0.69 | – | –
8 | Cc1ccc(S(=O)(=O)NC(=O)Nc2ccc(Cc3ccc(NC(=O)NS(=O)(=O)c4ccc(C)cc4)cc3)cc2)cc1 [BTUM, 4,4'-Bis(p-tolylsulfonylureido)diphenylmethane] | – | no cytotoxicity | no cytotoxicity | – | – | – | 2.25 | 70% | 0.30 | 26.78% | 0.27 | 33.79% | 0.34 | 79% | 0.21 | 0.23 | 0.18 | – | 70% | no cytotoxicity
